Three compounds from article PMC3973950, “Synthesis of 5-arylidine amino-1,3,4-thiadiazol-2-[(N-substituted benzyol)]sulphonamides endowed with potent antioxidants and anticancer activity induces growth inhibition in HEK293, BT474 and NCI-H226 cells” (Medicinal Chemistry Research, 2013) can be followed below.

Series [1] can be described thus: In vitro cytotoxicity by MTT assay, HEK 293. The class given is cell-based, human. The settings on record: human, HEK 293 cells, read-out: % cytotoxicity (100 − % cell survival) of HEK 293 cell line. As to the method: (§1) The cancer cell line cultures of HEK 293 ([…]), BT474 (breast cancer cell line) and NCI-H226 (lung cancer) were obtained from Pasteur Institute of India, Coonoor, India, and were cultured in RPMI-1640 and 10 % heat-[…] New born calf serum with antibiotics [penicillin ([…]), streptomycin (100 μg/mL) and amphotericin B (25 μg/mL)]. The cells were maintained at 37 °C in a humidified atmosphere with 5 % CO2 and were subcultured twice a week.
(§2) The monolayer cell culture (100 μL) was trypsinized, and the cell count was adjusted to […] using medium containing 10 % new born calf serum. To each well of the 96-well microtitre plate, the diluted cell suspension (approximately 10,000 cells) (0.1 mL) was added and kept for 24 h in incubator at 37 °C in 5 % CO2 atmosphere for cell monolayer formation. After 24 h, when a partial monolayer was formed at the bottom of the well, the supernatant was flicked off, the monolayer was washed once, and different drugs, i.e. synthesized compounds (100 μL), were added to the cells in microtitre plates. The plates were then incubated at 37 °C for 3 days in 5 % CO2 atmosphere, and microscopic examination was carried out and observations recorded every 24 h. After 72 h, the sample solution in the wells was flicked off; MTT dye ([…]) was added to each well; plates were gently shaken and incubated for 4 h at 37 °C in 5 % CO2 incubator. The supernatant was removed and propanol (50 μL) was added; the plates were gently shaken to solubilize the formed formazan. The absorbance was measured using a microplate reader at a wavelength of 490 nm (Edmondson et al., [1988]; Prasad et al., [2005]; Chiruvella et al., [2008]; Chang et al., [2007]).
On the technique in general: Tetrazolium assays rely on reduction of a dye to a coloured formazan, in cell work by metabolically active cells.

Series [2] relates to BT474 (breast cancer cell line). Nature of the series: In vitro cytotoxicity by MTT assay, BT474. The class given is cell-based. The conditions noted are these: Homo sapiens, 72 h, read-out: % cytotoxicity (100 − % cell survival) of BT474 cell line; for cytotoxicity at 0.005 µM: BT-474, 0.005 μM; for cytotoxicity at 0.015 µM: BT-474, 0.015 μM; for cytotoxicity at 0.045 µM: BT-474, 0.045 μM; for cytotoxicity at 0.13 µM: BT-474, 0.13 μM; for cytotoxicity at 0.41 µM: BT-474, 0.41 μM; for cytotoxicity at 1.23 µM: BT-474, 1.23 μM; for cytotoxicity at 3.7 µM: BT-474, 3.7 μM; for cytotoxicity at 11.11 µM: BT-474, 11.11 μM; for cytotoxicity at 33.33 µM: BT-474, 33.33 μM; for cytotoxicity at 100 µM: BT-474, 100 μM. The protocol: as §1, §2

Series [3] can be described thus: In vitro cytotoxicity by MTT assay, NCI-H226. The conditions noted are these: human, NCI-H226 lung cancer cells, 0.015 μM, read-out: % Cytotoxicity (100 − % cell survival) of NCI-H226 cell line. It counts as cell-based. The protocol:
as §1, §2

Series [4] relates to NCI-H226 (lung cancer cell line). Nature of the series: In vitro cytotoxicity by MTT assay, NCI-H226. The class given is cell-based. The conditions noted are these: Homo sapiens, 72 h, read-out: % Cytotoxicity (100 − % cell survival) of NCI-H226 cell line; for cytotoxicity at 0.005 µM: NCI-H226, 0.005 μM; for cytotoxicity at 0.045 µM: NCI-H226, 0.045 μM; for cytotoxicity at 0.13 µM: NCI-H226, 0.13 μM; for cytotoxicity at 0.41 µM: NCI-H226, 0.41 μM; for cytotoxicity at 1.23 µM: NCI-H226, 1.23 μM; for cytotoxicity at 3.7 µM: NCI-H226, 3.7 μM; for cytotoxicity at 11.11 µM: NCI-H226, 11.11 μM; for cytotoxicity at 33.33 µM: NCI-H226, 33.33 μM; for cytotoxicity at 100 µM: NCI-H226, 100 μM. The protocol: as §1, §2

Series [5] has as its system root meristem cells of Allium cepa. Nature of the series: In vitro antimitotic activity and cytogenetic analysis, Allium cepa meristem root model. It counts as cell-based. The conditions noted are these: compounds 1 mg/mL, PC (EMS) 2 × 10^−2 M. The protocol:
Small bulbs (1.5–2.0 cm in diameter) of the common onion, A. cepa (2n = 16), were purchased from vendor at a local market. Prior to initiating the test, the outer scales of the bulbs and the dry bottom plate were removed without destroying the root primordia. The roots of A. cepa were grown in distilled water in Erlenmeyer flasks (200 mL capacity) under laboratory conditions (dark 24 °C). For each synthesized compound sample, after reaching a length of 3 cm (±0.5 cm), a series of six bulbs were placed in distilled water (pH 7.3) for 48 h and then onion roots were treated with the synthesized compound at 1 mg/mL concentrations of each tested compound. The test tubes were kept in an incubator at 22 ± 1 °C, and the test samples were changed daily at the same time. Several of the newly formed root tips were then cut from each bulb and examined for any visible morphological abnormalities. The bulbs with satisfactory root lengths (2–2.5 cm) were used in the study, while those with exceptionally long or short roots were discarded (on average 2–3 bulbs). Therefore, individual sets of five bulbs were used for each extract sample.
Distilled water (pH 7.3) was used as a negative control, and EMS (2 × 10^−2 M) used as a positive control mutagen (Fiskesjo, [1993], [1997]). After 24 h of exposure, several root tips were removed from the bulbs, fixed in 3:1 (v/v) ethanol (90 %)/glacial acetic acid (45 %) and stored overnight at 4 °C. The next day, they were placed in 70 % (v/v) aqueous alcohol and refrigerated until used. Allium roots were softened by digesting with HCl and rinsed the roots in water. After removing the water from the third rinse, the roots were covered with the orcein acetate stain. The roots were incubated in the stain for 12 min. During this time, the very tip of the root begins to turn red as the DNA stains the numerous small actively dividing cells at the tip. A root was transferred to the centre of a clean microscope slide, and a drop of water was added. Using a razor blade most of the unstained part of the root was cut off and discarded. The root tip was covered with a cover slip and then carefully pushed down on the cover slide with the wooden end of a dissecting probe. […] The root tip should spread out to a diameter about 0.5–1 cm. Five slides were prepared per bulb.
The following parameters were used for the determination of cytotoxicity and genotoxicity: • (i) the mitotic index (MI) was calculated as the ratio between the number of mitotic cells and the total number of cells scored and expressed as percentage using following formula as per standard procedures. Mitoticindex=Numberofdividingcells/Totalnumberofcells×100 • (ii) Chromatin aberrations (stickiness, breaks and polar deviation) were used as end points for the determination of cytogenetic effects, and micronuclei (MNC) were scored in interphase cells per 1,000 cells (‰ MNC) (Freshney, [2000]). • (iii) The most frequent abnormalities are shown in microphotographs. After 72 h of exposure to the test samples, the root lengths were measured and used as an index of general toxicity. The results for mitotic index and root length are expressed as percentage of the negative and positive controls. Visible morphological modifications, such as changes in root consistency and colour as well as the presence of swelling (c-tumours), hooks or twists in the roots, were also observed.

Take `CC(=O)Nc1ccc(S(=O)(=O)Nc2nnc(S(=O)(=O)NC(=O)c3ccc(N)cc3)s2)cc1` [Compound 6c]: in series [1], the cytotoxicity at 72 h, 0.005 µM came out at 30.5%; the cytotoxicity at 72 h, 0.015 µM stood at 32%; the cytotoxicity at 72 h, 0.045 µM was 32.9%; the cytotoxicity at 72 h, 0.13 µM was 33.6%. In addition, in series [1], the cytotoxicity at 72 h, 0.41 µM stood at 34.8%; the cytotoxicity at 72 h, 1.23 µM is 35.7%; the cytotoxicity at 72 h, 3.7 µM came to 36.6%; the cytotoxicity at 72 h, 11.11 µM amounted to 37.8%. In addition, in series [1], the cytotoxicity at 72 h, 33.33 µM was 38.2% and the cytotoxicity at 72 h, 100 µM turned out to be 38.8%. In series [2], the cytotoxicity at 0.005 µM was found to be 33.1%, the cytotoxicity at 0.015 µM was determined as 33.3%, the cytotoxicity at 0.045 µM was 34.1% and the cytotoxicity at 0.13 µM was 35%. Also, in series [2], the cytotoxicity at 0.41 µM stood at 35.4%, the cytotoxicity at 1.23 µM came out at 36.7%, the cytotoxicity at 3.7 µM amounted to 37.1% and the cytotoxicity at 11.11 µM was found to be 37.9%. In series [2], the cytotoxicity at 33.33 µM came out at 38.2% and the cytotoxicity at 100 µM amounted to 39.4%. The cytotoxicity at 72 h, 0.015 µM in series [3] came to 32.8%. Further, in series [4], the cytotoxicity at 0.005 µM stood at 30.4%, the cytotoxicity at 0.045 µM came out at 33.6%, the cytotoxicity at 0.13 µM came to 34.1% and the cytotoxicity at 0.41 µM amounted to 34.8%. In addition, in series [4], the cytotoxicity at 1.23 µM was found to be 34.9%, the cytotoxicity at 3.7 µM amounted to 35.1%, the cytotoxicity at 11.11 µM was found to be 36.5% and the cytotoxicity at 33.33 µM was 38.3%. Also, the cytotoxicity at 100 µM in series [4] is 39%.

For `NS(=O)(=O)c1ccc(S(=O)(=O)Nc2cccc3c(Cl)c[nH]c23)cc1` [ISL, indisulam, reference compound], in series [1], the cytotoxicity at 72 h, 0.005 µM is 42.3%; the cytotoxicity at 72 h, 0.015 µM came out at 46.9%; the cytotoxicity at 72 h, 0.045 µM was found to be 48.6%; the cytotoxicity at 72 h, 0.13 µM was found to be 50.1%. In series [1], the cytotoxicity at 72 h, 0.41 µM is 51.1%; the cytotoxicity at 72 h, 1.23 µM worked out at 52.2%; the cytotoxicity at 72 h, 3.7 µM was determined as 55.4%; the cytotoxicity at 72 h, 11.11 µM amounted to 57.8%. In series [1], the cytotoxicity at 72 h, 33.33 µM came out at 61.2% and the cytotoxicity at 72 h, 100 µM amounted to 69.4%. Also, in series [2], the cytotoxicity at 0.005 µM was 42.2%, the cytotoxicity at 0.015 µM is 45%, the cytotoxicity at 0.045 µM was found to be 46.4% and the cytotoxicity at 0.13 µM came out at 49%. For the same compound, in series [2], the cytotoxicity at 0.41 µM worked out at 50.8%, the cytotoxicity at 1.23 µM amounted to 52.9%, the cytotoxicity at 3.7 µM came out at 54.7% and the cytotoxicity at 11.11 µM is 62.5%. Further, in series [2], the cytotoxicity at 33.33 µM was determined as 66.1% and the cytotoxicity at 100 µM was determined as 73.5%. In series [3], the cytotoxicity at 72 h, 0.015 µM stood at 28.4%. In addition, in series [4], the cytotoxicity at 0.005 µM was determined as 26.4%, the cytotoxicity at 0.045 µM turned out to be 30.2%, the cytotoxicity at 0.13 µM turned out to be 31.1% and the cytotoxicity at 0.41 µM amounted to 33%. In series [4], the cytotoxicity at 1.23 µM is 34.1%, the cytotoxicity at 3.7 µM amounted to 36.5%, the cytotoxicity at 11.11 µM is 38.6% and the cytotoxicity at 33.33 µM came to 44.7%. Besides, the cytotoxicity at 100 µM in series [4] stood at 59.3%.

As to `CCOS(C)(=O)=O` [PC, Ethyl methanesulphonate, reference compound], in series [5], the “Aberrant cells (%) ± SEM” value was determined as 43.20 ± 7.10%, the “MNC (‰) ± SEM (micronuclei per 1,000 cells)” value is reported as 0.59 ± 0.09 ‰, the “Polar deviations (%) ± SEM” value is listed as 12.36 ± 3.36% and the “Stickiness (%) ± SEM” value worked out at 36.31 ± 9.84%. For the same compound, the “MI (%) ± SEM (mitotic index)” value in series [5] (lower MI = higher activity, negative control 6.22) is listed as 1.86 ± 0.23%.
